PubChem BioAssay (NCI)
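Interpolation was linear, between the two tested concentrations surrounding the appropriate level; five concentrations were tested over 48 hours in 96-well plates. TGI is the concentration that stops growth completely.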

Tests used:
Assay in all cases: NCI tumour cell line growth inhibition, 48 h
NCI-H23 lung = system: NCI-H23 lung
DU-145 prostate = system: DU-145 prostate
SR leukemia = system: SR leukemia
OVCAR-3 ovarian = system: OVCAR-3 ovarian
UO-31 renal = system: UO-31 renal
COLO 205 colon = system: COLO 205 colon
OVCAR-4 ovarian = system: OVCAR-4 ovarian
HT29 colon = system: HT29 colon
OVCAR-5 ovarian = system: OVCAR-5 ovarian
K-562 leukemia = system: K-562 leukemia
PC-3 prostate = system: PC-3 prostate
MALME-3M melanoma = system: MALME-3M melanoma
MCF7 breast = system: MCF7 breast
RPMI-8226 leukemia = system: RPMI-8226 leukemia
NCI/ADR-RES ovarian = system: NCI/ADR-RES ovarian
HCT-15 colon = system: HCT-15 colon
MOLT-4 leukemia = system: MOLT-4 leukemia
A549 NSCLC = system: A549 NSCLC
U251 CNS = system: U251 CNS
HL-60(TB) leukemia = system: HL-60(TB) leukemia

Compound | TGI (NCI-H23 lung) [µM] | TGI (DU-145 prostate) [µM] | TGI (SR leukemia) [µM] | TGI (OVCAR-3 ovarian) [µM] | TGI (UO-31 renal) [µM] | TGI (COLO 205 colon) [µM] | TGI (OVCAR-4 ovarian) [µM] | TGI (HT29 colon) [µM] | TGI (OVCAR-5 ovarian) [µM] | TGI (K-562 leukemia) [µM] | TGI (PC-3 prostate) [µM] | TGI (MALME-3M melanoma) [µM] | TGI (MCF7 breast) [µM] | TGI (RPMI-8226 leukemia) [µM] | TGI (NCI/ADR-RES ovarian) [µM] | TGI (HCT-15 colon) [µM] | TGI (MOLT-4 leukemia) [µM] | TGI (A549 NSCLC) [µM] | TGI (U251 CNS) [µM] | TGI (HL-60(TB) leukemia) [µM]
OCC1COc2cc(Cl)c(Cl)cc2O1 (stereo not given) | > 10 | > 10 | > 10 | > 10 | > 10 | > 10 | > 10 | > 10 | > 10 | > 10 | > 10 | > 10 | > 10 | > 10 | > 10 | > 10 | > 10 | > 10 | > 10 | > 10
COc1nc2cccc(C(O)c3ccccc3)c2nc1-c1ccccc1 (stereo not given) | 35.5 | 26.9 | 12.4 | 20.4 | 68.7 | 16.3 | > 100 | 72.4 | 54.8 | 19.7 | 65.5 | > 100 | 32 | 10.8 | 15.9 | 26.5 | 34.7 | 54.5 | 16.8 | 18
O=c1[nH]nc(NCc2ccccc2)c2nnn(Cc3ccccc3)c12 | > 100 | > 100 | > 100 | > 100 | > 100 | > 100 | > 100 | > 100 | > 100 | > 100 | > 100 | > 100 | > 100 | > 100 | > 100 | > 100 | > 100 | > 100 | > 100 | > 100
